≈ marks a conversion by molar mass, not a printed value. Where a SMILES comes first, the peptide text is derived from it. Bridges are numbered along the chain shown (N, C = ends). Roman numbers before positions name the chains, in order. [ ]: non-standard residue; d: D form. The star is where a group is joined. Thr(ol) = C[C@@H](O)[C@H](N)CO; Tle = CC(C)(C)[C@H](N)C(=O)O; Hiv = CC(C)[C@H](O)C(=O)O; Isovaleryl = CC(C)CC(=O)*; dDab = NCC[C@@H](N)C(=O)O; hSer = N[C@@H](CCO)C(=O)O; Orn = NCCC[C@H](N)C(=O)O; Dab = NCC[C@H](N)C(=O)O; Abu = CC[C@H](N)C(=O)O; Dap = NC[C@H](N)C(=O)O
How the values were obtained:
Format in all cases: cell-based
[1] = tested on: Klebsiella pneumoniae 968733; settings: 968733
Outline: (§1)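 Cation-adjusted MH-II broth, 0.002% polysorbate 80, inoculum near 10^6 CFU/mL. MIC read visually after 18-20 h, 35° C; units μg/mL.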

[2] = tested on: Enterobacter cloacae 848840; settings: 848840
Outline: as §1

[3] = tested on: Acinetobacter baumannii 872842; settings: 872842
Outline: as §1

Escherichia coli 926415 = settings: 926415
Outline: as §1

[4] = tested on: Pseudomonas aeruginosa ATCC 27853; settings: ATCC 27853
Outline: as §1

[5] = tested on: Escherichia coli ATCC 25922; settings: ATCC 25922
Outline: as §1

[6] = tested on: Klebsiella pneumoniae SSI #3010; settings: SSI #3010
Outline: as §1

[7] = tested on: Acinetobacter baumannii DSM 30008; settings: DSM 30008
Outline: as §1

[8] = tested on: human red blood cells (hRBC); test: Hemolysis; settings: red cells of human, 1 h, 200
Outline: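 Washed fresh human RBC (20% v/v) incubated with peptide at 200 μg/mL for 1 h at 37° C with shaking. Supernatant OD540 measured after dilution, blank corrected; percent hemolysis = OD540 peptide / OD540 of 2% Triton X-100 lysis × 100, PBS with 10% water as 0%.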

Row | Compound | MIC [1] | MIC [2] | MIC [3] | MIC (Escherichia coli 926415) | MIC [4] | MIC [5] | MIC [6] | MIC [7] | Hemolysis at 200 μg/mL [8] | Pseudomonas aeruginosa ATCC 27853 MIC [4] | Escherichia coli ATCC 25922 MIC [5] | Klebsiella pneumoniae SSI #3010 MIC [6] | Acinetobacter baumannii DSM 30008 MIC [7]
1 | CC[C@@H]1NC(=O)[C@@H](CC(C)C)NC(=O)[C@H](CCN)NC(=O)[C@@H](NC(=O)[C@H](CN)NC(=O)[C@@H](NC(=O)[C@H](CCN)NC(=O)CC[C@@H]2NC(=O)[C@H]([C@@H](C)O)NC(=O)[C@H](Cc3ccc(O)cc3)NC(=O)[C@@H](NC(=O)[C@@H](NC(C)=O)C(C)C)CSSC[C@@H](C(=O)N[C@@H](CO)C(N)=O)NC(=O)[C@H](C(C)(C)C)NC(=O)[C@H](CO)NC(=O)[C@H](Cc3c[nH]c4ccccc34)NC(=O)[C@H](CCN)NC(=O)[C@@H](CCN)NC2=O)[C@@H](C)O)CCNC(=O)[C@H]([C@@H](C)O)NC(=O)[C@H](CCN)NC(=O)[C@H](CCN)NC1=O [Ex. 255] (I: Ac-VCYTE[dDab][Dab]WS[Tle]CS-NH2 / II: [Dab]T[Dap][Dab][Dab][dL][Abu][Dab][Dab]T; disulfide I:2-I:11; amide I:5-II:N; lactam II:4-II:C) | 0.25 µg/mL (≈ 0.104 µM) | 0.0625 µg/mL (≈ 0.0261 µM) | 0.125 µg/mL (≈ 0.0521 µM) | 0.0625 µg/mL (≈ 0.0261 µM) | 0.0625 µg/mL (≈ 0.0261 µM) | 0.0625 µg/mL (≈ 0.0261 µM) | 0.03125 µg/mL (≈ 0.013 µM) | 0.03125 µg/mL (≈ 0.013 µM) | 1% |  |  |  | 
2 | CC(=O)N[C@H](C(=O)N[C@H]1CSSC[C@@H](C(=O)N[C@@H](CO)C(N)=O)NC(=O)[C@H](C(C)(C)C)NC(=O)[C@H](CO)NC(=O)[C@H](Cc2c[nH]c3ccccc23)NC(=O)[C@H](CCN)NC(=O)[C@@H](CCN)NC(=O)[C@H](CCC(=O)N[C@@H](CCN)C(=O)N[C@H](C(=O)N[C@@H](CN)C(=O)N[C@H]2CCNC(=O)[C@H]([C@@H](C)O)NC(=O)[C@H](CCN)NC(=O)[C@H](CCN)NC(=O)[C@H](CC(C)C)NC(=O)[C@@H](CC(C)C)NC(=O)[C@H](CCN)NC2=O)[C@@H](C)O)NC(=O)[C@H]([C@@H](C)O)NC(=O)[C@H](Cc2ccc(O)cc2)NC1=O)C(C)C [Ex. 252] (I: Ac-VCYTE[dDab][Dab]WS[Tle]CS-NH2 / II: [Dab]T[Dap][Dab][Dab][dL]L[Dab][Dab]T; disulfide I:2-I:11; amide I:5-II:N; lactam II:4-II:C) | 0.125 µg/mL (≈ 0.0515 µM) | 0.125 µg/mL (≈ 0.0515 µM) | 0.0625 µg/mL (≈ 0.0258 µM) | 0.125 µg/mL (≈ 0.0515 µM) | 0.0625 µg/mL (≈ 0.0258 µM) | 0.0625 µg/mL (≈ 0.0258 µM) | 0.03125 µg/mL (≈ 0.0129 µM) | 0.0625 µg/mL (≈ 0.0258 µM) | 2% |  |  |  | 
3 | CC(C)C[C@@H]1NC(=O)[C@@H](CC(C)C)NC(=O)[C@H](CCN)NC(=O)[C@@H](NC(=O)[C@H](CCN)NC(=O)[C@@H](NC(=O)[C@H](CCN)NC(=O)CC[C@@H]2NC(=O)[C@H](CCN)NC(=O)[C@H](C(C)C)NC(=O)[C@@H](NC(=O)[C@@H](O)C(C)C)CSSC[C@@H](C(=O)N[C@H](CO)[C@@H](C)O)NC(=O)[C@H](Cc3ccc(O)cc3)NC(=O)[C@H](CO)NC(=O)[C@H](Cc3c[nH]c4ccccc34)NC(=O)[C@H](CCO)NC(=O)[C@@H](CCN)NC2=O)[C@@H](C)O)CCNC(=O)[C@H]([C@@H](C)O)NC(=O)[C@H](CCN)NC(=O)[C@H](CCN)NC1=O [Ex. 89] (I: H-[Hiv]CV[Dab]E[dDab][hSer]WSYC[Thr(ol)] / II: [Dab]T[Dab][Dab][Dab][dL]L[Dab][Dab]T; disulfide I:2-I:11; amide I:5-II:N; lactam II:4-II:C) | 1 µg/mL (≈ 0.419 µM) | 0.5 µg/mL (≈ 0.209 µM) | 0.5 µg/mL (≈ 0.209 µM) | 0.5 µg/mL (≈ 0.209 µM) | 0.25 µg/mL (≈ 0.105 µM) | 0.125 µg/mL (≈ 0.0524 µM) | 0.125 µg/mL (≈ 0.0524 µM) | 0.0625 µg/mL (≈ 0.0262 µM) | <1% |  |  |  | 
4 | CC(C)CC(=O)N[C@H]1CSSC[C@@H](C(=O)N[C@H](CO)[C@@H](C)O)NC(=O)[C@H](C(C)(C)C)NC(=O)[C@H](CO)NC(=O)[C@H](Cc2c[nH]c3ccccc23)NC(=O)[C@H](CCO)NC(=O)[C@@H](CCN)NC(=O)[C@H](CCC(=O)N[C@@H](CCN)C(=O)N[C@H](C(=O)N[C@@H](CCN)C(=O)N[C@H]2CCNC(=O)[C@H]([C@@H](C)O)NC(=O)[C@H](CCN)NC(=O)[C@H](CCN)NC(=O)[C@H](CC(C)C)NC(=O)[C@@H](CC(C)C)NC(=O)[C@H](CCN)NC2=O)[C@@H](C)O)NC(=O)[C@H](CCN)NC(=O)[C@H](Cc2ccc(O)cc2)NC1=O [Example 2] (I: Isovaleryl-CY[Dab]E[dDab][hSer]WS[Tle]C[Thr(ol)] / II: [Dab]T[Dab][Dab][Dab][dL]L[Dab][Dab]T; disulfide I:1-I:10; amide I:4-II:N; lactam II:4-II:C) | 0.25 µg/mL (≈ 0.105 µM) | 0.5 µg/mL (≈ 0.21 µM) | 0.125 µg/mL (≈ 0.0524 µM) | 0.125 µg/mL (≈ 0.0524 µM) | 0.25 µg/mL (≈ 0.105 µM) | 0.125 µg/mL (≈ 0.0524 µM) | 0.5 µg/mL (≈ 0.21 µM) | 0.125 µg/mL (≈ 0.0524 µM) | <1% |  |  |  | 
5 | CC(=O)N[C@H](C(=O)N[C@H]1CCNC(=O)CC[C@@H](C(=O)N[C@@H](CO)C(N)=O)NC(=O)[C@H](C(C)C)NC(=O)[C@H](CO)NC(=O)[C@H](Cc2c[nH]c3ccccc23)NC(=O)CNC(=O)[C@@H](CCN)NC(=O)[C@H](CCC(=O)N[C@@H](CCN)C(=O)N[C@H](C(=O)N[C@@H](CN)C(=O)N[C@H]2CCNC(=O)[C@H]([C@@H](C)O)NC(=O)[C@H](CCN)NC(=O)[C@H](CCN)NC(=O)[C@H](CC(C)C)NC(=O)[C@@H](CC(C)C)NC(=O)[C@H](CCN)NC2=O)[C@@H](C)O)NC(=O)[C@H](CCN)NC(=O)[C@H](Cc2ccc(O)cc2)NC1=O)C(C)C [Ex. 349] (I: Ac-V[Dab]Y[Dab]E[dDab]GWSVES-NH2 / II: [Dab]T[Dap][Dab][Dab][dL]L[Dab][Dab]T; lactam I:2-I:11, II:4-II:C; amide I:5-II:N) | 0.25 µg/mL (≈ 0.105 µM) | 0.25 µg/mL (≈ 0.105 µM) | 0.25 µg/mL (≈ 0.105 µM) | 0.25 µg/mL (≈ 0.105 µM) |  |  |  |  | <1% | 0.125 µg/mL | 0.0625 µg/mL | 0.125 µg/mL | 0.0625 µg/mL
6 | CC(=O)N[C@@H](CC(C)C)C(=O)N[C@H]1CSSC[C@@H](C(=O)N[C@@H](CO)C(N)=O)NC(=O)[C@H](C(C)C)NC(=O)[C@H](CO)NC(=O)[C@H](Cc2c[nH]c3ccccc23)NC(=O)[C@H](CO)NC(=O)[C@@H](CCN)NC(=O)[C@H](CCC(=O)N[C@@H](CCN)C(=O)N[C@H](C(=O)N[C@@H](CN)C(=O)N[C@H]2CCNC(=O)[C@H]([C@@H](C)O)NC(=O)[C@H](CCN)NC(=O)[C@H](CCN)NC(=O)[C@H](CC(C)C)NC(=O)[C@@H](CC(C)C)NC(=O)[C@H](CCN)NC2=O)[C@@H](C)O)NC(=O)[C@H](CCN)NC(=O)[C@H](Cc2ccc(O)cc2)NC1=O [Ex. 314] (I: Ac-LCY[Dab]E[dDab]SWSVCS-NH2 / II: [Dab]T[Dap][Dab][Dab][dL]L[Dab][Dab]T; disulfide I:2-I:11; amide I:5-II:N; lactam II:4-II:C) | 0.125 µg/mL (≈ 0.0518 µM) | 0.125 µg/mL (≈ 0.0518 µM) | 0.0625 µg/mL (≈ 0.0259 µM) | 0.0625 µg/mL (≈ 0.0259 µM) |  |  |  |  | 2% | 0.25 µg/mL | 0.01562 µg/mL | 0.125 µg/mL | 0.01562 µg/mL
7 | CC(=O)N[C@H](C(=O)N[C@H]1CCCNC(=O)C[C@@H](C(=O)N[C@@H](CO)C(N)=O)NC(=O)[C@H](C(C)C)NC(=O)[C@H](CO)NC(=O)[C@H](Cc2c[nH]c3ccccc23)NC(=O)[C@H](CO)NC(=O)[C@@H](CCN)NC(=O)[C@H](CCC(=O)N[C@@H](CCN)C(=O)N[C@H](C(=O)N[C@@H](CN)C(=O)N[C@H]2CCNC(=O)[C@H]([C@@H](C)O)NC(=O)[C@H](CCN)NC(=O)[C@H](CCN)NC(=O)[C@H](CC(C)C)NC(=O)[C@@H](CC(C)C)NC(=O)[C@H](CCN)NC2=O)[C@@H](C)O)NC(=O)[C@H](CCN)NC(=O)[C@H](Cc2ccc(O)cc2)NC1=O)C(C)C [Ex. 319] (I: Ac-V[Orn]Y[Dab]E[dDab]SWSVDS-NH2 / II: [Dab]T[Dap][Dab][Dab][dL]L[Dab][Dab]T; lactam I:2-I:11, II:4-II:C; amide I:5-II:N) | 4 µg/mL (≈ 1.66 µM) | 1 µg/mL (≈ 0.416 µM) | 0.5 µg/mL (≈ 0.208 µM) | 1 µg/mL (≈ 0.416 µM) |  |  |  |  | <1% | 0.125 µg/mL | 0.0625 µg/mL | 0.25 µg/mL | 0.125 µg/mL
